According to PMC4981864, “Novel pH-Sensitive Cyclic Peptides” (Scientific Reports, 2016):

How the values were obtained:
[1] = Dual quenching assay (acrylamide / 10-DN); assay type: physicochemical; settings: 7 μM peptide, 2.1 mM POPC
Description: To establish localization of the peptides within a lipid bilayer of membrane, dual quenching assay[28] was employed (Fig. 3 and Table S3). Effective quenching of fluorescence by acrylamide would occur only for tryptophan residues exposed to polar parts of the outer or inner leaflets of the bilayer. At the same time, tryptophan residues located in the middle of a membrane would be effectively quenched by 10-DN. The result of the dual quenching assay allows establishing if tryptophan residues were located in the middle of a membrane or close to the polar headgroups of the bilayer. […] Therefore, we also performed Förster resonance energy transfer (FRET) assay[29] (Fig. 4). First, symmetrically-labelled by NBD dye, POPC liposomes were prepared. Then, membrane-impermeable dithionite was used to chemically modify exposed NBD, which led to the quenching of NBD fluorescence. Thus, NBD dyes located at the outer leaflet of the bilayer were deactivated and excess of dithionite was removed by gel filtration. As a result, asymmetrically-labelled liposomes with active NBD at the inner leaflet were obtained. FRET was monitored from tryptophan residues of the peptides to NBD. Energy transfer might occur only when both fluorophores are in proximity to each other (within 5–15 Å). Thus, when tryptophan residues located at the outer leaflet of the bilayer no significant energy transfer to NBD at the inner leaflet would occur (the distance is about 50–60 Å). […] All other peptides were located at the outer leaflet of the bilayer at pH 8. Drop of pH promoted partitioning of all cyclic peptides into bilayer, which highest FRET for the c[E4W5C] at pH 3.
POPC liposomes without and with 10% of the lipids replaced by 10-doxylnonadecane (10-DN) (Avanti Polar Lipids) were prepared in 10 mM citrate-phosphate buffer pH 8.0. Peptides and POPC liposomes were mixed to generate final concentrations of 7 μM peptide and 2.1 mM POPC without and with 10-DN. […] Quencher, acrylamide (Sigma-Aldrich), was added to the samples of POPC liposomes containing no 10-DN, to have final concentration of 235 mM acrylamide. Concentration of peptides in all samples was kept constant. To observe quenching of tryptophan fluorescence by 10-DN or acrylamide, the tryptophan fluorescence was recorded as described above. The appropriate POPC blanks were measured and subtracted from the measured spectra before analysis. The percentage of quenching was calculated.

[2] = Calculated weak-acid distribution Ci/Ce between inner and outer leaflets; settings: pKa 5.7
Description: Thus, cyclic peptides could be considered as a weak acid with multiple protonatable groups, which can diffuse across the bilayer. For weak acids, the intracellular-extracellular distribution, Ci/Ce, should be calculated according to the following equation: […]
where pHi and pHe are the intracellular and extracellular pH values, respectively. Since the cyclic peptides have affinity to the membrane, we consider Ci and Ce as the concentrations of the peptide on inner and outer leaflets, respectively. […] However, the same ratio increases to 4.5, 7.8, and 10.9 if extracellular pHe would be 6.5, 6.2 and 6.0, respectively. We assume that the symmetrical WE peptides have the same mechanism of action as an asymmetric peptide, however they have less favorable localization of Trp and Glu residues, which reduces their ability to accumulate at the inner leaflet of bilayer of cellular membranes and target acidic tumors. Leu-containing peptides are less advantageous due to their reduced affinity to the headgroup part of the bilayer and high affinity to the center of the membrane.

SMILES: O=C(O)CC[C@@H]1NC(=O)[C@H](CS)NC(=O)[C@H](Cc2c[nH]c3ccccc23)NC(=O)[C@H](Cc2c[nH]c3ccccc23)NC(=O)[C@H](Cc2c[nH]c3ccccc23)NC(=O)[C@H](Cc2c[nH]c3ccccc23)NC(=O)[C@H](Cc2c[nH]c3ccccc23)NC(=O)[C@H](CCC(=O)O)NC(=O)[C@H](CCC(=O)O)NC(=O)[C@H](CCC(=O)O)NC1=O [c[E4W5C]]
- percentage of fluorescence quenching, Pep-PC+AC pH3 ([1]; 235 mM acrylamide, pH 3): 54%
- percentage of fluorescence quenching, Pep-PC+AC pH8 ([1]; 235 mM acrylamide, pH 8): 61%
- percentage of fluorescence quenching, Pep-PC+10-DN pH3 ([1]; 10% of lipids replaced by 10-DN, pH 3): 52%
- percentage of fluorescence quenching, Pep-PC+10-DN pH8 ([1]; 10% of lipids replaced by 10-DN, pH 8): 49%
- concentration ratio at the inner and outer leaflets, Ci/Ce ([2]; pHe 6.0, pHi = 7.2): 10.9
- concentration ratio at the inner and outer leaflets, Ci/Ce ([2]; pHe 6.2, pHi = 7.2): 7.8
- concentration ratio at the inner and outer leaflets, Ci/Ce ([2]; pHe 6.5, pHi = 7.2): 4.5
- concentration ratio at the inner and outer leaflets, Ci/Ce ([2]; pHe = 7.4, pHi = 7.2): 0.6
